According to ChEMBL document CHEMBL1201862, “PubChem BioAssay data set” (2004):
Activity calls are given as the source filed them.

What was measured:
[1] = viability of PTEN-deleted HCT116 cells – cell-based, HCT116 PTEN knockout, dose response (AID 1047); format: functional;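 also: HCT116 colon tumor cells with PTEN knocked out; cells exposed to compound for 60 hours before readout; potency for loss of cell viability measured by luminescence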
[2] = viability of HCT116 lacking mutant beta-catenin – cell-based, human colon tumor, dose response (AID 1045); format: functional;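 also: HCT116 colon tumor cells with beta catenin knocked out; cells exposed to compound for 60 hours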
[3] = A Cell Based Secondary Assay To Explore Cytotoxicity of Compounds that Sensitize Mycobacterium Tuberculosis to Beta-Lactam Antibiotics.; format: functional
Large T antigen = Large T antigen (Simian virus 40, UniProt P03070); format: functional, Betapolyomavirus macacae;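 also: Confirmatory-stage PubChem screen for compounds that inhibit SV40 T antigen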
[4] = molecular target: DNA dC->dU-editing enzyme APOBEC-3A (Homo sapiens, UniProt P31941); assay: A3A deaminase inhibition for selectivity – biochemical, dose response (AID 504722); format: functional
[5] = molecular target: DNA dC->dU-editing enzyme APOBEC-3G (Homo sapiens, UniProt Q9HC16); assay: Dose Response confirmation of small molecule APOBEC3G DNA Deaminase Inhibitors via a fluorescence-based single-stranded DNA deaminase assay. [Related pubchem assays (depositor defined):AID493012, AID493028]; format: functional
[6] = HEK-293T cell viability reduction – luminescence, B-cell screen hits, cytotoxicity control for BCR NF-kB inhibitor project, dose response (AID 489021); format: functional, cell-based;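 also: HEK-293T cells carrying an NF-kB luciferase reporter; cells exposed to compound for about 14 hours before viability readout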
[7] = molecular target: Voltage-dependent T-type calcium channel subunit alpha-1H (Homo sapiens, UniProt O95180); format: functional;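 also: channel activity triggered by adding a high calcium stimulation buffer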
[8] = HIV-1 Vif–A3G interaction blockers – biochemical, TR-FRET, GST-Vif 1-94, biotin-A3G peptide, dose response retest, primary screen (AID 1117319); format: functional;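 also: TR-FRET signal of purified GST-Vif binding a biotinylated A3G peptide; inhibitors lower the FRET signal by blocking Vif and A3G binding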
Escherichia coli = assay: microbe, parasite or virus in culture
Leucine aminopeptidase = molecular target: T1, Leucine aminopeptidase (Plasmodium falciparum 3D7, UniProt Q8IL11); assay: P. falciparum M17LAP inhibitors, primary screen, biochemical, fluorogenic H-Leu-NHMec substrate, 1536-well (AID 1619); format: functional
T1 sequence (Q8IL11 whole entry): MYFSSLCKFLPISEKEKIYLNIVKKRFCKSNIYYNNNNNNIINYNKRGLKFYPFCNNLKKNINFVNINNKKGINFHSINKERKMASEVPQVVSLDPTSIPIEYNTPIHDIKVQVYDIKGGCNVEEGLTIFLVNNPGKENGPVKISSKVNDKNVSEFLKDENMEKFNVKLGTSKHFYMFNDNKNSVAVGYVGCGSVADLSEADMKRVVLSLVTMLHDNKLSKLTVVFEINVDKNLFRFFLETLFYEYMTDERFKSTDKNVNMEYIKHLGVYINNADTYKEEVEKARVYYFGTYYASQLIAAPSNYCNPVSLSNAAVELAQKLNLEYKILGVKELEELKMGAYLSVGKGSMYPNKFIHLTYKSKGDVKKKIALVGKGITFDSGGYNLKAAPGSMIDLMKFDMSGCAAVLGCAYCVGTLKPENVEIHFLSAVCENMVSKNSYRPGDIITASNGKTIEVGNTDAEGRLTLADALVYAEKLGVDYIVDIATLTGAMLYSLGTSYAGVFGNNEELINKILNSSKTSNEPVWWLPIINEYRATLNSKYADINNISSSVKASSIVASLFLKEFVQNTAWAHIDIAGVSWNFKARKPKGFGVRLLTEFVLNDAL

[9] = molecular target: Luciferin 4-monooxygenase (Photinus pyralis, UniProt P08659); assay: Counter Screen for Luciferase-based Assay Positives. [Related pubchem assays: 620, 618, 411 ]
[10] = alpha-synuclein stem-loop luciferase translation blockers – H4 neuroglioma cells, luminescence, confirmation (AID 1988); format: functional, cell-based
INS1 = assay: INS-1E survival protection against cytokine death – cell-based, luminescence, retest, dose response (AID 449756); format: functional; conditions: Rattus norvegicus;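 also: cell death triggered by IL-1 beta plus TNF-alpha plus IFN-gamma mixture; protective hits raise ATP signal compared with cytokine alone wells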
BJ [11] = assay: growth inhibition of engineered Ras-driven BJ cells – cell-based, alamar blue fluorescence, cherrypicked samples, dose response (AID 2631); format: functional; conditions: Homo sapiens;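 also: confirmatory dose-response assay in RAS-dependent BJ fibroblasts engineered with TERT, LT and ST, with cytotoxicity read by fluorescence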
[12] = DRD fibroblast viability loss – cell-based, non-viral oncogenic, luminescence, dose response (AID 1934); format: functional; conditions: Homo sapiens
HEK293 = assay: EBV LMP1 TES2 canonical NF-kB signalling blockers – cell-based, HEK293, luciferase, cherry-pick, dose response (AID 588343); format: functional; conditions: Homo sapiens
[13] = luciferase reporter signal suppression in cells – H4 neuroglioma cells, luminescence, dose response (AID 1990); format: functional, cell-based
[14] = Luminescence Cell-Based Dose Response HTS to Identify Inhibitors of 5'UTR Stem-Loop Driven Prion Protein mRNA Translation in H4 Neuroglioblastoma Cells. [Related pubchem assays: 1827 (Project Summary), 1813 (Primary HTS)]; format: functional
BJ [15] = assay: cells; format: functional, cell-based; conditions: Homo sapiens
HT-1080 = assay: HT1080 cell viability loss – fluorescence readout (AID 620); format: functional, cell-based; conditions: Homo sapiens
BJ [16] = assay: BJ-TERT fibroblast viability loss – cell-based, RAS-independent, luminescence, dose response (AID 1933); format: functional; conditions: Homo sapiens
BJ [17] = assay: BJ-TERT-LT-ST fibroblast viability loss – cell-based, RAS-independent, luminescence, dose response (AID 1935); format: functional; conditions: Homo sapiens;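 also: BJ fibroblasts immortalized with TERT plus LT and ST oncogenes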
[18] = fluconazole-exposed Candida albicans growth modulators – fluorescence, retest, confirmation (AID 2467); format: functional, cell-based
[19] = tested on: Streptococcus sp. 'group A'; assay: Streptococcus pyogenes SK(-)GAS viability under kanamycin – luminescence, BacTiterGlo, confirmation, counter-screen for streptokinase expression inhibitor project, dose response (AID 1900); format: functional, organism-based
[20] = molecular target: Heat shock protein HSP 90-alpha (Homo sapiens, UniProt P07900); format: functional, organism-based
[21] = NIH-3T3 fibroblast cytotoxicity, dose response, cytotoxicity control, cell-based, fluorescence, Alamar Blue, secondary assay (AID 2327); format: functional;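 also: NIH-3T3 mouse fibroblasts cultured with fluconazole at 8 µg/mL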
Streptococcus = assay: GAS UMAA2166 growth inhibition – luminescence, BacTiterGlo, counter-screen for streptokinase expression inhibitor project, dose response (AID 1915); format: functional, organism-based;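 also: potency for reduction of bacterial viability or growth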
Streptokinase A = molecular target: T2, Streptokinase A (Streptococcus pyogenes serotype M1, UniProt P10520); assay: viability-normalized secreted streptokinase activity reduction – plasminogen activation absorbance, OD405, dose response (AID 1914); format: functional, Streptococcus pyogenes M1 GAS;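 also: secreted streptokinase activity via plasminogen activation per viability signal from cell pellet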
T2 sequence (P10520 whole entry): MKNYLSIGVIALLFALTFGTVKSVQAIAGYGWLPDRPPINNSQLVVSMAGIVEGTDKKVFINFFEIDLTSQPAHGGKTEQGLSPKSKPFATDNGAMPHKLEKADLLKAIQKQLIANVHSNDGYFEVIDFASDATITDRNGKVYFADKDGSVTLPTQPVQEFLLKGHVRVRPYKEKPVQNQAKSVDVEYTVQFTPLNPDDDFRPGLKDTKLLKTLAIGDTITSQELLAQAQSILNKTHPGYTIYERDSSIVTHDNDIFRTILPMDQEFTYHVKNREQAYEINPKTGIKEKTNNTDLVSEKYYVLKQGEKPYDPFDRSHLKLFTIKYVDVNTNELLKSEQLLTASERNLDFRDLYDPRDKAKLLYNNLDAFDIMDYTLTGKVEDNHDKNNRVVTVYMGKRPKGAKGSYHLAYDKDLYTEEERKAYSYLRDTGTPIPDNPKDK

NS3 = NS3 (Hepatitis C virus, UniProt A3EZJ3); assay: PubChem AID 2173; set-up: species or system Hepacivirus hominis
Sequence of NS3 (A3EZJ3 whole entry): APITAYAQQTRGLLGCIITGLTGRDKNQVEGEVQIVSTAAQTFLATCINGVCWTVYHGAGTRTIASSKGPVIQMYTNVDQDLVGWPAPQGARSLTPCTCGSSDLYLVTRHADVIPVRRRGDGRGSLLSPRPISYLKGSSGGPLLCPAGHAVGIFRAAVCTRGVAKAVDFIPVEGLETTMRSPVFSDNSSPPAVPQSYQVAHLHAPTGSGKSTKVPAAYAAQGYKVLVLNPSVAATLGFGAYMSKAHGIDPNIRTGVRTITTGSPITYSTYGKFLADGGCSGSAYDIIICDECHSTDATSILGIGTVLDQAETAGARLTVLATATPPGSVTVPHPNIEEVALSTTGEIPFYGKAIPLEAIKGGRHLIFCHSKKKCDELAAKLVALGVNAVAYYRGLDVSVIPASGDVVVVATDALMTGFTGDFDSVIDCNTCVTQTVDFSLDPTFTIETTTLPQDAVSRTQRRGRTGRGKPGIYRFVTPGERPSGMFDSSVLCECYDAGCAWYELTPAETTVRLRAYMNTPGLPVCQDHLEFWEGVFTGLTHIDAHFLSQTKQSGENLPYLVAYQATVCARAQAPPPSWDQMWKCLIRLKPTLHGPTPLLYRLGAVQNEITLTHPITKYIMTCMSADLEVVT

Sequence of DNA dC->dU-editing enzyme APOBEC-3G (Q9HC16 whole entry): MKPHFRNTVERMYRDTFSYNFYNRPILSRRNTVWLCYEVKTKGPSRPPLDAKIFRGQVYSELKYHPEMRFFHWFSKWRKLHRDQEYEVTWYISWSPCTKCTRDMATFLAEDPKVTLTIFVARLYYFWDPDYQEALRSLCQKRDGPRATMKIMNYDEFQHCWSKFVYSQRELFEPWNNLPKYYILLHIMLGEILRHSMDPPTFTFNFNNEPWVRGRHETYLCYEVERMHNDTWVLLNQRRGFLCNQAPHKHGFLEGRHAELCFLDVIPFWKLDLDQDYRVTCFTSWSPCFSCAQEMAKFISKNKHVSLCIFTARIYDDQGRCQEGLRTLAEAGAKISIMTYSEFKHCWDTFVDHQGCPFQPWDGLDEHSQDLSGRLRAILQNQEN
Sequence of DNA dC->dU-editing enzyme APOBEC-3A (P31941 whole entry): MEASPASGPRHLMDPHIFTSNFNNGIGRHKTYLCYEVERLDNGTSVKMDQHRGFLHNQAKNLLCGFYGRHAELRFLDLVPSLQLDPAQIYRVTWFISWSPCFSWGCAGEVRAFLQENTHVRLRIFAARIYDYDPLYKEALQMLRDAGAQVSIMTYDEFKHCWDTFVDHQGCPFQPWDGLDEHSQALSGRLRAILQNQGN
Sequence of Large T antigen (P03070 whole entry): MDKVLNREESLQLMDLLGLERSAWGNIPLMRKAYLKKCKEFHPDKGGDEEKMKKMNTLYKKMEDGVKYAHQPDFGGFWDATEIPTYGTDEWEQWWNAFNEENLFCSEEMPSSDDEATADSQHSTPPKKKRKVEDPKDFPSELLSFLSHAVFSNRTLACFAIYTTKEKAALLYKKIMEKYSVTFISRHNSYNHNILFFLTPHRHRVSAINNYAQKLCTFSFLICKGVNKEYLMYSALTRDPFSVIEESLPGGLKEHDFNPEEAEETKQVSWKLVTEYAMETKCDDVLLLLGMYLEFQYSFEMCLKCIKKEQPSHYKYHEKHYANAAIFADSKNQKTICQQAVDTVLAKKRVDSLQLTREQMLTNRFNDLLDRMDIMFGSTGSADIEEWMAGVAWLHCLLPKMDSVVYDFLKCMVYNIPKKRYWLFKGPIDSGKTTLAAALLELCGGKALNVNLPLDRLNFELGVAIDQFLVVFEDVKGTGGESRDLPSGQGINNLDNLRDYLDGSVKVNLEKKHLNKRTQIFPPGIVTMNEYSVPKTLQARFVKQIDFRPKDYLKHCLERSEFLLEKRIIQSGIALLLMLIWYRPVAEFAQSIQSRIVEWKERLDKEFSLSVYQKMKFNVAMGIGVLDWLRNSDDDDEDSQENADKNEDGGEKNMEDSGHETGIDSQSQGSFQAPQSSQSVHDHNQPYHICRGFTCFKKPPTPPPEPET
Sequence of Voltage-dependent T-type calcium channel subunit alpha-1H (O95180 whole entry): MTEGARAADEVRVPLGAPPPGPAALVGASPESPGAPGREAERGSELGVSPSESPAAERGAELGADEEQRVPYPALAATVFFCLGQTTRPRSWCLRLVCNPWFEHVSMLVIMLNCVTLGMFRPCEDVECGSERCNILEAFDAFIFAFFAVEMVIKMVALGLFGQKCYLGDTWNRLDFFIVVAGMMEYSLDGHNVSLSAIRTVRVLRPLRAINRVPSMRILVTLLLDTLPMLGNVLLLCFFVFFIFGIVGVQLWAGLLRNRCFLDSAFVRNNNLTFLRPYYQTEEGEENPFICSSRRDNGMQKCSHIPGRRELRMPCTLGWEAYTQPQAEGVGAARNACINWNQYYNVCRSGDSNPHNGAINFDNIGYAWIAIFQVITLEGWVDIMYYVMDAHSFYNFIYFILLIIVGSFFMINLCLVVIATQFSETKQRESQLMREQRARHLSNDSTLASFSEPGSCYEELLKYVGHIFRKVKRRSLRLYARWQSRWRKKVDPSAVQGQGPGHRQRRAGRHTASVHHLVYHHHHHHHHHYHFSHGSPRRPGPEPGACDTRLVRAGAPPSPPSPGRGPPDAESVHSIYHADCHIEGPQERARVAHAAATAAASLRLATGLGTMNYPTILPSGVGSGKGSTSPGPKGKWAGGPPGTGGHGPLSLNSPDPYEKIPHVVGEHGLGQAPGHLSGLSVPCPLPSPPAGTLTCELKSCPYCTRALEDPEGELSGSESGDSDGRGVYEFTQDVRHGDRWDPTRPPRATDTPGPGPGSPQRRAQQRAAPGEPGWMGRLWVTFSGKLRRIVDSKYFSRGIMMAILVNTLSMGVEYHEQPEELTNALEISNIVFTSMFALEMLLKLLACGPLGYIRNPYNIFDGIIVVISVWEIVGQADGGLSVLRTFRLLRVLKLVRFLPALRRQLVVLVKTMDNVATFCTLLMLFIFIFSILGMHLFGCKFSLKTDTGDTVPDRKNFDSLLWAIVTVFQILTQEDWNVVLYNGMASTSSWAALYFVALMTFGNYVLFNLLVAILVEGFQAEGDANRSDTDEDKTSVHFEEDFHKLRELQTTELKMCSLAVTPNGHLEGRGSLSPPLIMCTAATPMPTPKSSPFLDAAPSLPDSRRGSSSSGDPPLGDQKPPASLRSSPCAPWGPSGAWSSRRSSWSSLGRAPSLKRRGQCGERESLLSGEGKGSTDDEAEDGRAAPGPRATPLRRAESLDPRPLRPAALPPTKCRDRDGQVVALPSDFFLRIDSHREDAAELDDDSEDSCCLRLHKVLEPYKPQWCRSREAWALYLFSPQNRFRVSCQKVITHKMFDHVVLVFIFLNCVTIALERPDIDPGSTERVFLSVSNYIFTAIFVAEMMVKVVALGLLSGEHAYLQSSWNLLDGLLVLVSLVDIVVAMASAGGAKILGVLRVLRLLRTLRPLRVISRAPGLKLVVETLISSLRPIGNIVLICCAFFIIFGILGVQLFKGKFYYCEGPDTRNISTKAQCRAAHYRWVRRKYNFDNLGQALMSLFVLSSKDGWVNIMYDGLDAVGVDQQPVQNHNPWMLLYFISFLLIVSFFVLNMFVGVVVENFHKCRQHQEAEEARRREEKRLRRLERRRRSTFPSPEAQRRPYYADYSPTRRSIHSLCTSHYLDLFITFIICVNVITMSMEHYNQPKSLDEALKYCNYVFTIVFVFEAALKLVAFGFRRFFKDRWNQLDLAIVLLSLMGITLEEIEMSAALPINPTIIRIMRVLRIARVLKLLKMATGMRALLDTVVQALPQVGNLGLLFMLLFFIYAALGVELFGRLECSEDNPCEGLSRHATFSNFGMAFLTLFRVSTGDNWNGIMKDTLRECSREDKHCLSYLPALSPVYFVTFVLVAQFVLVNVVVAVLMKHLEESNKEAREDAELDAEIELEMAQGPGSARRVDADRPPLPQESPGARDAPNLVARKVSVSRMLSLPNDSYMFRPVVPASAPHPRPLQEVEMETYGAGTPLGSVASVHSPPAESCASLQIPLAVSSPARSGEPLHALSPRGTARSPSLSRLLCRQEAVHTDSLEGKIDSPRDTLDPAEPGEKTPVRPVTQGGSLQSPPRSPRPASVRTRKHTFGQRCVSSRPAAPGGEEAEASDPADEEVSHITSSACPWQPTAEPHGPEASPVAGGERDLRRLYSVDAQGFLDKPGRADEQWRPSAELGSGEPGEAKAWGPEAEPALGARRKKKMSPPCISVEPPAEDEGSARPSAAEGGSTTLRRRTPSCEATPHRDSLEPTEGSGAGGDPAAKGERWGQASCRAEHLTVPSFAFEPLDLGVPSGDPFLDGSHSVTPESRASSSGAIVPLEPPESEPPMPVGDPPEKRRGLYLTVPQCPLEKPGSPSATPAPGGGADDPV
Sequence of Luciferin 4-monooxygenase (P08659 whole entry): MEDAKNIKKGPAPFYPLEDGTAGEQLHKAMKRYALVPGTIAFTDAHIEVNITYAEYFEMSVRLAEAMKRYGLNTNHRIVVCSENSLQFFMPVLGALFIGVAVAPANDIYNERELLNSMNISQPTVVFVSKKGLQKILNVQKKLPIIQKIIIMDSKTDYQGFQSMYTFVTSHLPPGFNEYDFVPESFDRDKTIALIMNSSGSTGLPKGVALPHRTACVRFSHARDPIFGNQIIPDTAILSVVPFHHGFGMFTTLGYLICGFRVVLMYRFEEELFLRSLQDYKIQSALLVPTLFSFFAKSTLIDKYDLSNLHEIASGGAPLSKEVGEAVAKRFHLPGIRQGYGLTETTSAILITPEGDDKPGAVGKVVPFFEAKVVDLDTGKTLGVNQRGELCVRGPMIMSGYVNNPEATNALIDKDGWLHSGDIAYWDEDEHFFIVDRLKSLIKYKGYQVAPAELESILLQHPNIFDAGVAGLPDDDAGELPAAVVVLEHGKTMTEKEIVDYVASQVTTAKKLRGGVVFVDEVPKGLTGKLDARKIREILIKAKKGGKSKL

## C/C(=N/NC(=O)c1ccc(Cl)s1)c1ccc(NC(=O)COc2ccc(Cl)cc2)cc1
[1]
  EC50: 24 µM (active)
[2]
  EC50: 22.2 µM (active)
[3]
  CC50: > 40 µM (active)

## CC(/C=N/n1c(S)nnc1-c1[nH]nc2c1CCC2)=C\c1ccco1
Large T antigen
  IC50: 32.3 µM (active)
[4]
  IC50: > 100 µM (inactive)
[5]
  IC50: 2.29 µM (active)

## Cc1cccn2c(=O)c3cc(C(=O)NC4CCCCC4)c(=N)n(CCN4CCOCC4)c3nc12
[6]
  IC50: > 80 µM (inactive)

## Cc1ccc(-c2noc(CSc3nnc(Cc4ccccc4)n3-c3ccc(Cl)cc3)n2)cc1
[7]
  EC50: 4.98 µM (active)

## CCc1ccc(-c2cc(C(=O)Nc3ccc(S(=O)(=O)NC(C)=O)cc3)c3ccccc3n2)cc1
[8]
  IC50: > 100 µM (active)
Escherichia coli
  AC50: 38.6 µM (active)
Leucine aminopeptidase
  IC50: 7.8 µM (active)

## COc1ccccc1/C=C/C=N/n1c(S)nnc1-c1ccncc1
[4]
  IC50: > 100 µM (inactive)
[5]
  IC50: 2.21 µM (active)

## O=C1N=C(N2CCCC2)S/C1=C\c1cccc(Br)c1
[3]
  CC50: > 40 µM (active)

## CCCCC/N=C\c1c(C)nn(-c2nc3ccccc3s2)c1O
[9]
  EC50: 1.93 µM (active)
[10]
  EC50: 7.25 µM (active)
INS1
  AC50: 2.69 µM (active)
BJ [11]
  EC50: > 133 µM (inactive)
[12]
  EC50: 2.01 µM (active)
HEK293
  AC50: 3.89 µM (active)
[13]
  EC50: 9.33 µM (inconclusive)
[14]
  EC50: 6.84 µM (active)
BJ [15]
  EC50: 2.32 µM (active)
HT-1080
  EC50: > 50 µM (not active)
BJ [16]
  EC50: 1.26 µM (active)
BJ [17]
  EC50: 4.84 µM (active)

## COc1ccc(-c2csc(Nc3ncccc3C)n2)cc1OC
[3]
  CC50: > 40 µM (active)

## Cc1ccc(/C=C/C(=O)c2ccccc(=O)c2O)c(C)c1
[18]
  EC50: 1.46 µM (active)
[19]
  EC50: 5.22 µM (active)
[20]
  AC50: 2.05 µM (active)
[21]
  EC50: > 160 µM (inactive)
Streptococcus
  EC50: 7.6 µM (active)
Streptokinase A
  EC50: > 150 µM (not active)
NS3
  IC50: 2.9 µM (active)
